# Experimental data: article PMC6941357, “An in vitro toolbox to accelerate anti-malarial drug discovery and development” (Malaria Journal, 2020)
# Key:
# [1] = In vitro metabolism (metabolic stability) in human liver microsomes; details: human, pH 7.4, HLM CLint
# Outline: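 Compound depletion in human liver microsomes was followed by LC–MS at 2–60 min, with cofactor-free controls. First-order depletion rate constants gave in vitro CLint (µL/min/mg protein), corrected to unbound CLint using measured microsomal fu.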
# [2] = Plasma protein binding via ultracentrifugation (UC); type: in vitro ADME, human; details: pH 7.4
# Outline: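 Pooled human plasma (3–4 donors) spiked and ultracentrifuged; protein-free supernate gave Cunbound, parallel tubes kept at 37 °C gave Ctotal and stability (start vs end). Samples matrix-matched 1:1 with opposite blank and quantified against a common calibration curve; fu SD by error propagation.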
# [3] = Octanol/pH 7.4 buffer partition coefficient, shake flask; details: pH 7.4
# Outline: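 Octanol stocks (3-30 mg/mL) were diluted 3- and 10-fold and shaken with equal volumes of pH 7.4 phosphate buffer (67 mM, in 43 mM NaCl) at 37 °C. Both phases were quantified by LC-MS against calibration standards. The coefficient is the mean octanol/buffer concentration ratio, with two time points confirming equilibrium.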
# [4] = Binding to human liver microsomes via ultracentrifugation; type: in vitro ADME; details: human, liver microsomes, pH 7.4, 0.4 mg/mL protein, read-out: Fraction unbound, HLM
# Outline: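 Unbound fraction by ultracentrifugation: Cunbound measured in protein-free supernate, Ctotal from spiked tubes held at 37 °C, sampled at start and end to check degradation. Matrix was 0.4 mg/mL human liver microsomal protein, 0.1 M phosphate pH 7.4; matrix-matched analysis against one calibration curve.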
# CYP2D6 = CYP2D6 (Homo sapiens, UniProt P10635); test: Cytochrome P450 inhibition in human liver microsomes; details: for inhibition at 20 µM: human, pH 7.4; for inhibition at 20 µM / CYP2D6 % inhibition at max conc: microsomes
# Chain of CYP2D6 (P10635 whole entry, canonical isoform): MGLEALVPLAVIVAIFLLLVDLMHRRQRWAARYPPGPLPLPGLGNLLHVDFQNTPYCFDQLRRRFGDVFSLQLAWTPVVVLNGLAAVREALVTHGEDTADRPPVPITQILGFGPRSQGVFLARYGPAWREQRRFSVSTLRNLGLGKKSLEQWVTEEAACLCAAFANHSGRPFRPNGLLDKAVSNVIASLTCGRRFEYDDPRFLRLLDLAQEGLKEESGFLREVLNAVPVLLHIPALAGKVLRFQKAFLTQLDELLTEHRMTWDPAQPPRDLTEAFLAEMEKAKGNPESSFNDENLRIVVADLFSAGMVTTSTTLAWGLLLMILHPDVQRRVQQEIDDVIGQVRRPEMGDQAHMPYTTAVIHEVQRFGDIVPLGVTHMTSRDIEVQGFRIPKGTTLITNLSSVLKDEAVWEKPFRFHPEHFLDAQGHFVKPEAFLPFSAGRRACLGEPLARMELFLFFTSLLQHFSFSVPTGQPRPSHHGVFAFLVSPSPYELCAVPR
# Outline: (§1)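 Activity of each isoform followed via a specific probe-substrate metabolite formed in human liver microsomes; reactions quenched with ice-cold acetonitrile and metabolite measured by LC–MS. Percent inhibition taken versus metabolite formation without inhibitor; Km from metabolite formation rate (pmol/min/mg protein) across substrate concentrations.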
# CYP3A4 = CYP3A4 (Homo sapiens, UniProt P08684); test: as above; details: for IC50: highest concentration tested 20 µM; for inhibition at 20 µM: human; for inhibition at 20 µM / CYP3A4 (midaz) % inhibition at max conc / CYP3A4 (test) % inhibition at max conc: microsomes
# Chain of CYP3A4 (P08684 whole entry): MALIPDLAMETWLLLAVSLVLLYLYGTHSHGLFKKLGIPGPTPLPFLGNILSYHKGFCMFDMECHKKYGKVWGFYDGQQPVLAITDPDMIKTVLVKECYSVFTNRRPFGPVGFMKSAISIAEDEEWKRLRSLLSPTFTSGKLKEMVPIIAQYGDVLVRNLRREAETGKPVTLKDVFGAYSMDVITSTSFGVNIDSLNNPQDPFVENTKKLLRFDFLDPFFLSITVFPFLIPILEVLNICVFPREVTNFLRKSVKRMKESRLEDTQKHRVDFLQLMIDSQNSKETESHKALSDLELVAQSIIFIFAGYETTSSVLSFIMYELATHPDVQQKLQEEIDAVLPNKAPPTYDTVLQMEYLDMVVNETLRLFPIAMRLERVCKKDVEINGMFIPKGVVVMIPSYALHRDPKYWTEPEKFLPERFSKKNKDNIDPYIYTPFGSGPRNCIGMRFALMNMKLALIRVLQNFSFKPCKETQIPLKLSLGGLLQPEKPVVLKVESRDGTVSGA
# Outline: as §1
# [5] = biological target: T1, Albumax medium (lipid rich bovine serum albumin) (Bos taurus, UniProt P02769); test: Binding in Albumax medium via ultracentrifugation; type: in vitro ADME; details: bovine, pH 7.4
# T1 construct: purchased Gibco, Thermo Fisher Scientific
# T1 sequence (P02769 25-607): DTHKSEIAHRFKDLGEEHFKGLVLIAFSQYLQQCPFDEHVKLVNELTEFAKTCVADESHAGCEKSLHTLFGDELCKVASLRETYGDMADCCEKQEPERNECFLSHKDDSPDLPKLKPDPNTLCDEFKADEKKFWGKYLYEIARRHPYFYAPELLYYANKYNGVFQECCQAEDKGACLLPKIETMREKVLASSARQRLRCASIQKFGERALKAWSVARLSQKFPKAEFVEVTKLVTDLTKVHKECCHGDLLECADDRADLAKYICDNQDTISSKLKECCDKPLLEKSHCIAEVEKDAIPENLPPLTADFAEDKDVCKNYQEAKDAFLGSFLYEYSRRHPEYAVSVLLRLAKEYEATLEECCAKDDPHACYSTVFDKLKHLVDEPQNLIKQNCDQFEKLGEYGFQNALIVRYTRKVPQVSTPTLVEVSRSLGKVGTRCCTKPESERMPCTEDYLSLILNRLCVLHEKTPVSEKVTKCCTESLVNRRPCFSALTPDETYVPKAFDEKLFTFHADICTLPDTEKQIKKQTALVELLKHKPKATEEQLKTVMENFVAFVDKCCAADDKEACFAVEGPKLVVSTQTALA
# Outline: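 Unbound fraction (fu) taken as protein-free supernate concentration over total concentration after ultracentrifuging compound-spiked Albumax at 37 °C (5% or 10% CO2, or air). Analysis used 1:1 mixing with the opposite blank matrix against a common pH 7.4 calibration; degradation judged by start versus end Ctotal.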
# [6] = liver microsomes, human liver microsomes, average of n = 2 replicates, < 7 means < 15% loss over 60 min
# [7] = human, neat pooled plasma, ultracentrifugation, neat plasma, read-out: Fraction unbound, human plasma
# [8] = CYP3A4 (midaz) IC50, human liver microsomes, CYP3A4 (midaz)
# [9] = CYP3A4 (test) IC50, human liver microsomes, CYP3A4 (test)
# [10] = pH 7.4, CYP3A4 (midaz) % inhibition at max conc
# [11] = pH 7.4, CYP3A4 (test) % inhibition at max conc
Structure (SMILES),"microsomal CLint at 1 µM [1, 6] [µL/min/mg]","fraction unbound at […] [2, 7]","fraction unbound at […] ([2]; human plasma, fraction unbound, read-out: Plasma fu)",logD ([3]; octanol/pH 7.4 buffer),logD ([3]; octanol/pH 7.4 phosphate buffered saline),fraction unbound at […] [4],IC50 (CYP2D6) [µM],inhibition at 20 µM (CYP2D6) [%],IC50 (CYP3A4; [8]) [µM],IC50 (CYP3A4; [9]) [µM],"Ki (CYP3A4; CYP3A4 (test) Ki, human liver microsomes, CYP3A4 (test)) [µM]",inhibition at 20 µM (CYP3A4; [10]) [%],"fraction unbound at […], 500 ng/mL ([5]; isolated protein)",Ki (CYP2D6) [µM],CYP3A4 (midaz) % inhibition at max conc (CYP3A4),CYP3A4 (test) % inhibition at max conc (CYP3A4),inhibition at 20 µM (CYP3A4; [11]) [%],CYP2D6 % inhibition at max conc (CYP2D6),microsomal CLint at 1 µM ([1]; microsomes) [µL/min/mg],"fraction unbound at […], 500 ng/mL ([5]; Albumax medium)"
COc1cc(C)c2c(Oc3cccc(C(F)(F)F)c3)c(OC)cc(NC(C)CCCN)c2n1 (centres unmarked) [Tafenoquine],< 7,0.11,0.0007,4.24,4.24,0.002 ± 0.0003,> 20,35,> 20,3.8,2.3,40,–,–,–,–,–,–,–,–
CC1(C)N=C(N)N=C(N)N1c1ccc(Cl)cc1 [Cycloguanil],< 7,0.75 ± 0.04,–,–,–,0.72 ± 0.083,6,–,> 20,> 20,–,–,0.88 ± 0.057,3.7,nmi,nmi,–,–,–,–
CC1(C)c2nc(-c3ccc(F)cc3)c(Nc3ccc(F)cc3)n2CCN1C(=O)CN [KAF156],14.7,0.11,–,2.06,–,0.14 ± 0.006,–,–,–,–,–,–,0.38 ± 0.017,–,–,–,–,–,–,–
N#Cc1cc(NC(=O)[C@H]2c3ccccc3C(=O)N(CC(F)(F)F)[C@@H]2c2cccnc2)ccc1F [SJ733],142,0.17,–,3.9,–,0.58 ± 0.069,16,–,> 20,> 20,–,33,0.4 ± 0.04,9.6,–,–,37,–,–,–
CS(=O)(=O)c1ccc(-c2cnc(N)c(-c3ccc(C(F)(F)F)nc3)c2)cc1 [MMV048],< 7,0.17,–,2.5,–,0.61 ± 0.014,> 20,16,–,> 20,–,–,0.46 ± 0.022,–,–,nmi,–,–,–,–
CC[C@H]1OC(=O)[C@H](C)[C@@H](O[C@H]2C[C@@](C)(OC)[C@@H](O)[C@H](C)O2)[C@H](C)[C@@H](O[C@@H]2O[C@H](C)C[C@H](N(C)C)[C@H]2O)[C@](C)(O)C[C@@H](C)CN(C)[C@H](C)[C@@H](O)[C@]1(C)O [Azithromycin],< 7,0.71,–,1.1,–,0.7 ± 0.06,> 20,–,–,–,–,–,0.76 ± 0.065,–,–,–,–,nmi,–,–
OC(c1cc(C(F)(F)F)nc2c(C(F)(F)F)cccc12)C1CCCCN1 (centres unmarked) [Mefloquine],–,0.058,–,2.7,–,0.05 ± 0.006,–,–,–,–,–,–,–,–,nmi,–,29,–,< 7,0.27 ± 0.019
CO[C@H]1O[C@@H]2O[C@@]3(C)CC[C@H]4[C@H](C)CC[C@@H]([C@H]1C)[C@@]24OO3 [Artemether],163,0.1,–,3.7,–,0.5 ± 0.052,> 20,–,> 20,> 20,–,39,0.46 ± 0.039,–,–,–,37,nmi,–,–
CC(C)NC(=N)NC(=N)Nc1ccc(Cl)c(Cl)c1 [Chlorproguanil],< 7,0.1 ± 0.007,–,1.1,–,0.052 ± 0.004,1.4,–,> 20,> 20,–,–,0.5 ± 0.02,0.87,nmi,–,41,–,–,–
